{"source": "patent US5068247A", "about": "“2-aminopentanoic acid compounds and their use as immunosuppressants” (priority 1989, dated 1991)", "key": {"[1]": {"tested_on": "IL-2 production in mouse allogenic MLC", "experiment": "suppression of IL-2 production in mouse allogenic MLC", "type": "cell-based", "protocol": "Mouse allogenic MLC was carried out as follows:\nAfter termination of culture, the supernatant was collected and used as the supernatant of mouse allogenic MLC.\nThe IL-2 and IL-3 activities in the supernatant of mouse allogenic MLC were assayed in the same way as in Experiment Example 4."}, "[2]": {"tested_on": "allo-reactive cytotoxic T cells in spleen of EL4-immunized BALB/c mice", "experiment": "suppression of allo-reactive cytotoxic T cells induced by immunization of mouse with allogenic cells", "type": "in vivo", "protocol": "Male 5- to 7-week-old BALB/c mice (H-2^d) were immunized with leukemia cell EL4 derived from C57BL/6 mice (H-2^b) (10^7 cells/mouse, intraperitoneal administration), and the test substance was administered intraperitoneally 5 times at the doses of 0.001 to 3 mg/kg/day or orally at the doses of 0.3 to 10 mg/kg/day from the day of immunization. Nine to ten days after immunization, the spleen was resected from the mice to prepare a single cell suspension and the suspension was used as effector cell suspension. The ^51 Cr-release assay was carried out in the same way as in Experiment Example 3, using EL4 cells as the target cells to measure the cytotoxic activity.\nThe activity of allo-reactive cytotoxic T cell is indicated by lytic unit (LU) per spleen. One lytic unit (LU) is defined as the number of effector cells required to cause 25% lysis of 5×10^3 target cells. At the same time, the body weight of mouse and number of spleen cells were also determined."}, "[3]": {"experiment": "cytotoxicity to cultured tumor cell line MOLT4", "type": "cell-based, human", "details": "human, molt4 cells, read-out: Suppression", "procedure": "(§1) Cytotoxicity to various human tumor cell lines was examined as follows:\n(§2) Cells of human cell lines, K562, MOLT4, U937 and HL60 were respectively suspended to the concentration of 4×10^5 cells/ml in the RPMI1640 culture medium supplemented with 20% FCS. Fifty μl of each suspension was added to each well of a 96-well microtest plate to which 50 μl of the test solution had been added. After culturing the suspension at 37° C. in an atmosphere of 5% carbon dioxide for 72 hours, the absorbancy at 570 nm was measured in the same way as with the colorimetry using MTT in Experiment Example 1, and the percent suppression was calculated by the following formula, which was used as an index of cytotoxicity."}, "MOLT4": {"tested_on": "MOLT4", "experiment": "cytotoxicity to cultured tumor cell line MOLT4", "type": "cell-based, human", "procedure": "as §1, §2"}, "[4]": {"experiment": "cytotoxicity to cultured tumor cell line HL60", "details": "human, hl60 cells, Suppression", "procedure": "as §1, §2"}, "HL60": {"tested_on": "HL60", "experiment": "cytotoxicity to cultured tumor cell line HL60", "procedure": "as §1, §2"}, "U937": {"tested_on": "U937", "experiment": "cytotoxicity to cultured tumor cell line U937", "type": "cell-based, human", "procedure": "as §1, §2"}, "[5]": {"experiment": "cytotoxicity to cultured tumor cell line U937", "type": "cell-based, human", "details": "human, u937 cells, read-out: Suppression", "procedure": "as §1, §2"}, "[6]": {"details": "0.01 mg/kg/day ip × 5, Table 9A"}, "[7]": {"details": "0.03 mg/kg/day ip × 5, Table 9A"}}}
{"smiles": "CCCCCCCCCCCCCCCC[C@@H](O)[C@H](O)[C@@](N)(CO)C(=O)O", "note": "[Example 2]", "values": [{"measurement": "IL-2 activity", "setting": "[1]; 0.0001 μg/ml", "value": 3.9, "unit": "U/ml"}, {"measurement": "IL-2 activity", "setting": "[1]; 0.001 μg/ml", "value": 3.1, "unit": "U/ml"}, {"measurement": "IL-2 activity", "setting": "[1]; 0.01 μg/ml", "value": 3.6, "unit": "U/ml"}, {"measurement": "IL-2 activity", "setting": "[1]; 0.1 μg/ml", "value": 1, "unit": "U/ml"}, {"measurement": "IL-2 activity", "setting": "[1]; 1 μg/ml", "value": 1.6, "unit": "U/ml"}, {"measurement": "inhibition at 0.0001 µg/mL", "setting": "[1]; Mus musculus, 48 h, 0.0001 μg/ml", "value": 13.3, "unit": "%"}, {"measurement": "inhibition at 0.001 µg/mL", "setting": "[1]; Mus musculus, 48 h, 0.001 μg/ml", "value": 31.1, "unit": "%"}, {"measurement": "inhibition at 0.01 µg/mL", "setting": "[1]; Mus musculus, 48 h, 0.01 μg/ml", "value": 17.8, "unit": "%"}, {"measurement": "inhibition at 0.1 µg/mL", "setting": "[1]; Mus musculus, 48 h, 0.1 μg/ml", "value": 68.9, "unit": "%"}, {"measurement": "inhibition at 1 µg/mL", "setting": "[1]; Mus musculus, 48 h, 1 μg/ml", "value": 64.4, "unit": "%"}, {"measurement": "Body weight 9 days after immunization", "setting": "[2]; [6]", "value": "29.0 ± 1.7", "unit": "g"}, {"measurement": "Cytotoxic T cell activity", "setting": "[2]; [6]", "value": "724 ± 202", "unit": "LU/spleen"}, {"measurement": "Cytotoxic T cell activity, suppression", "setting": "[2]; [6]", "value": 28.5, "unit": "%"}, {"measurement": "Number of spleen cells", "setting": "[2]; [6]", "value": "3.2 ± 0.5 × 10^8 cell"}, {"measurement": "Body weight 9 days after immunization", "setting": "[2]; [7]", "value": "28.5 ± 1.0", "unit": "g"}, {"measurement": "Cytotoxic T cell activity", "setting": "[2]; [7]", "value": "536 ± 272", "unit": "LU/spleen"}, {"measurement": "Cytotoxic T cell activity, suppression", "setting": "[2]; [7]", "value": 47.0, "unit": "%"}, {"measurement": "Number of spleen cells", "setting": "[2]; [7]", "value": "2.6 ± 0.6 × 10^8 cell"}, {"measurement": "Body weight 9 days after immunization", "setting": "[2]; 0.1 mg/kg/day ip × 5, Table 9A", "value": "28.3 ± 1.4", "unit": "g"}, {"measurement": "Cytotoxic T cell activity", "setting": "[2]; 0.1 mg/kg/day ip × 5, Table 9A", "value": "527 ± 172", "unit": "LU/spleen"}, {"measurement": "Cytotoxic T cell activity, suppression", "setting": "[2]; 0.1 mg/kg/day ip × 5, Table 9A", "value": 47.9, "unit": "%"}, {"measurement": "Number of spleen cells", "setting": "[2]; 0.1 mg/kg/day ip × 5, Table 9A", "value": "2.8 ± 0.5 × 10^8 cell"}, {"measurement": "Body weight 9 days after immunization", "setting": "[2]; 0.3 mg/kg/day ip × 5, Table 9A", "value": "29.0 ± 1.8", "unit": "g"}, {"measurement": "Cytotoxic T cell activity", "setting": "[2]; 0.3 mg/kg/day ip × 5, Table 9A", "value": "525 ± 58", "unit": "LU/spleen"}, {"measurement": "Cytotoxic T cell activity, suppression", "setting": "[2]; 0.3 mg/kg/day ip × 5, Table 9A", "value": 48.1, "unit": "%"}, {"measurement": "Number of spleen cells", "setting": "[2]; 0.3 mg/kg/day ip × 5, Table 9A", "value": "3.1 ± 0.5 × 10^8 cell"}, {"measurement": "Body weight 9 days after immunization", "setting": "[2]; 0.3 mg/kg/day po × 5, Table 9B", "value": "28.0 ± 0.7", "unit": "g"}, {"measurement": "Cytotoxic T cell activity", "setting": "[2]; 0.3 mg/kg/day po × 5, Table 9B", "value": "323 ± 97", "unit": "LU/spleen"}, {"measurement": "Cytotoxic T cell activity, suppression", "setting": "[2]; 0.3 mg/kg/day po × 5, Table 9B", "value": 65.0, "unit": "%"}, {"measurement": "Number of spleen cells", "setting": "[2]; 0.3 mg/kg/day po × 5, Table 9B", "value": "1.4 ± 0.2 × 10^8"}, {"measurement": "Body weight 9 days after immunization", "setting": "[2]; 1 mg/kg/day ip × 5, Table 9A", "value": "27.3 ± 1.9", "unit": "g"}, {"measurement": "Cytotoxic T cell activity", "setting": "[2]; 1 mg/kg/day ip × 5, Table 9A", "value": "318 ± 128", "unit": "LU/spleen"}, {"measurement": "Cytotoxic T cell activity, suppression", "setting": "[2]; 1 mg/kg/day ip × 5, Table 9A", "value": 68.6, "unit": "%"}, {"measurement": "Number of spleen cells", "setting": "[2]; 1 mg/kg/day ip × 5, Table 9A", "value": "3.2 ± 0.6 × 10^8 cell"}, {"measurement": "Body weight 9 days after immunization", "setting": "[2]; 1 mg/kg/day po × 5, Table 9B", "value": "29.0 ± 1.7", "unit": "g"}, {"measurement": "Cytotoxic T cell activity", "setting": "[2]; 1 mg/kg/day po × 5, Table 9B", "value": "473 ± 92", "unit": "LU/spleen"}, {"measurement": "Cytotoxic T cell activity, suppression", "setting": "[2]; 1 mg/kg/day po × 5, Table 9B", "value": 48.7, "unit": "%"}, {"measurement": "Number of spleen cells", "setting": "[2]; 1 mg/kg/day po × 5, Table 9B", "value": "1.4 ± 0.3 × 10^8"}, {"measurement": "Body weight 9 days after immunization", "setting": "[2]; 3 mg/kg/day ip × 5, Table 9A", "value": "28.6 ± 1.7", "unit": "g"}, {"measurement": "Cytotoxic T cell activity", "setting": "[2]; 3 mg/kg/day ip × 5, Table 9A", "value": "< 50", "unit": "LU/spleen"}, {"measurement": "Cytotoxic T cell activity, suppression", "setting": "[2]; 3 mg/kg/day ip × 5, Table 9A", "value": 95.1, "unit": "%"}, {"measurement": "Number of spleen cells", "setting": "[2]; 3 mg/kg/day ip × 5, Table 9A", "value": "2.7 ± 0.4 × 10^8 cell"}, {"measurement": "Body weight 9 days after immunization", "setting": "[2]; 3 mg/kg/day po × 5, Table 9B", "value": "29.4 ± 1.5", "unit": "g"}, {"measurement": "Cytotoxic T cell activity", "setting": "[2]; 3 mg/kg/day po × 5, Table 9B", "value": "427 ± 100", "unit": "LU/spleen"}, {"measurement": "Cytotoxic T cell activity, suppression", "setting": "[2]; 3 mg/kg/day po × 5, Table 9B", "value": 53.7, "unit": "%"}, {"measurement": "Number of spleen cells", "setting": "[2]; 3 mg/kg/day po × 5, Table 9B", "value": "2.0 ± 0.3 × 10^8"}, {"measurement": "Body weight 9 days after immunization", "setting": "[2]; 10 mg/kg/day po × 5, Table 9B", "value": "27.4 ± 1.7", "unit": "g"}, {"measurement": "Cytotoxic T cell activity", "setting": "[2]; 10 mg/kg/day po × 5, Table 9B", "value": "274 ± 82", "unit": "LU/spleen"}, {"measurement": "Cytotoxic T cell activity, suppression", "setting": "[2]; 10 mg/kg/day po × 5, Table 9B", "value": 70.3, "unit": "%"}, {"measurement": "Number of spleen cells", "setting": "[2]; 10 mg/kg/day po × 5, Table 9B", "value": "1.6 ± 0.3 × 10^8"}, {"measurement": "induction of allo-reactive cytotoxic T cells (in words)", "setting": "[2]; 5 times intraperitoneal or oral", "value": "strongly suppresses the induction of allo-reactive cytotoxic T cells"}, {"measurement": "cytotoxicity at 72 h", "setting": "[3]; 0.1 μg/ml", "value": 0.9, "unit": "%"}, {"measurement": "cytotoxicity at 72 h", "setting": "[3]; 1 μg/ml", "value": 11, "unit": "%"}, {"measurement": "cytotoxicity at 72 h", "setting": "[3]; 10 μg/ml", "value": 9.4, "unit": "%"}, {"measurement": "Absorbancy", "setting": "MOLT4; 0.1 μg/ml", "value": "1.144 ± 0.040"}, {"measurement": "Absorbancy", "setting": "MOLT4; 1 μg/ml", "value": "1.027 ± 0.009"}, {"measurement": "Absorbancy", "setting": "MOLT4; 10 μg/ml", "value": "1.045 ± 0.041"}, {"measurement": "cytotoxicity at 72 h", "setting": "[4]; 0.1 μg/ml", "value": 7, "unit": "%"}, {"measurement": "cytotoxicity at 72 h", "setting": "[4]; 1 μg/ml", "value": 1.6, "unit": "%"}, {"measurement": "cytotoxicity at 72 h", "setting": "[4]; 10 μg/ml", "value": 3.3, "unit": "%"}, {"measurement": "Absorbancy", "setting": "HL60; 0.1 μg/ml", "value": "1.385 ± 0.066"}, {"measurement": "Absorbancy", "setting": "HL60; 1 μg/ml", "value": "1.466 ± 0.126"}, {"measurement": "Absorbancy", "setting": "HL60; 10 μg/ml", "value": "1.441 ± 0.018"}, {"measurement": "Absorbancy", "setting": "U937; 0.1 μg/ml", "value": "0.669 ± 0.030"}, {"measurement": "Absorbancy", "setting": "U937; 1 μg/ml", "value": "0.681 ± 0.009"}, {"measurement": "Absorbancy", "setting": "U937; 10 μg/ml", "value": "0.673 ± 0.111"}, {"measurement": "cytotoxicity at 72 h", "setting": "[5]; 1 μg/ml", "value": 0.1, "unit": "%"}, {"measurement": "cytotoxicity at 72 h", "setting": "[5]; 10 μg/ml", "value": 1.3, "unit": "%"}, {"measurement": "cytotoxicity at 72 h", "setting": "[5]; 0.1 μg/ml", "value": 1.9, "unit": "%"}]}
